pIC50: −log10 of the molar value.
System: 947758-054-R-J2-PDC spheroid growth, percent test/control
Experiment: Anticancer human tumor 947758-054-R-J2-PDC patient-derived colon adenocarcinoma cell line growth inhibition [CLK]
Conditions: spheroids with HUVEC and MSC; for pIC50: curve of first compound; for viability, T/C: stronger effect = lower value
Summary of the method: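 Patient-derived tumor cells grown as complex spheroids with HUVEC endothelial cells and mesenchymal stem cells, treated with drug combinations. Concentrations descend in half-log steps from near clinical Cmax, or from 10 microM if Cmax unknown.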

[1] = second compound 0.0316 µM, first compound 0.0316 µM
[2] = second compound 0.0316 µM, first compound 0.1 µM
[3] = second compound 0.0316 µM, first compound 0.316 µM
[4] = second compound 0.0316 µM, first compound 1 µM
[5] = second compound 0.0316 µM, first compound 3.16 µM
[6] = second compound 0.0316 µM, first compound 10 µM
[7] = second compound 0.1 µM, first compound 0.0316 µM
[8] = second compound 0.1 µM, first compound 0.1 µM
[9] = second compound 0.1 µM, first compound 0.316 µM
[10] = second compound 0.1 µM, first compound 1 µM
[11] = second compound 0.1 µM, first compound 3.16 µM
[12] = second compound 0.1 µM, first compound 10 µM
[13] = second compound 0.316 µM, first compound 0.0316 µM
[14] = second compound 0.316 µM, first compound 0.1 µM
[15] = second compound 0.316 µM, first compound 0.316 µM
[16] = second compound 0.316 µM, first compound 1 µM
[17] = second compound 0.316 µM, first compound 3.16 µM
[18] = second compound 0.316 µM, first compound 10 µM
[19] = second compound 1 µM, first compound 0.0316 µM
[20] = second compound 1 µM, first compound 0.1 µM
[21] = second compound 1 µM, first compound 0.316 µM
[22] = second compound 1 µM, first compound 1 µM
[23] = second compound 1 µM, first compound 3.16 µM
[24] = second compound 1 µM, first compound 10 µM
[25] = second compound 3.16 µM, first compound 0.0316 µM
[26] = second compound 3.16 µM, first compound 0.1 µM
[27] = second compound 3.16 µM, first compound 0.316 µM
[28] = second compound 3.16 µM, first compound 1 µM
[29] = second compound 3.16 µM, first compound 3.16 µM
[30] = second compound 3.16 µM, first compound 10 µM
[31] = second compound 10 µM, first compound 0.0316 µM
[32] = second compound 10 µM, first compound 0.1 µM
[33] = second compound 10 µM, first compound 0.316 µM
[34] = second compound 10 µM, first compound 1 µM
[35] = second compound 10 µM, first compound 3.16 µM
[36] = second compound 10 µM, first compound 10 µM
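Note: spheroids exposed to compounds for one week before readout.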
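Throughout, for viability, T/C: 100% = DMSO vehicle control wells.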

COc1ccc([C@@H](O)c2cc(-c3ncnc4cc(N5CCOCC5)ccc34)c(F)cc2Cl)nn1 + CN1CCN(c2cc(C(=O)Nc3cc4cc(-c5cnn(C)c5)ccc4cn3)ccn2)CC1
pIC50 (second compound 0.0316 µM): < 5.00 | pIC50 (second compound 0.1 µM): 5.37 | pIC50 (second compound 0.316 µM): > 7.50 | pIC50 (second compound 1 µM): > 7.50 | pIC50 (second compound 3.16 µM): > 7.50 | pIC50 (second compound 10 µM): > 7.50 | viability, T/C [1]: 126% | viability, T/C [2]: 134% | viability, T/C [3]: 157% | viability, T/C [4]: 163% | viability, T/C [5]: 165% | viability, T/C [6]: 64% | viability, T/C [7]: 119% | viability, T/C [8]: 137% | viability, T/C [9]: 111% | viability, T/C [10]: 92.1% | viability, T/C [11]: 59.8% | viability, T/C [12]: 25.2% | viability, T/C [13]: 1.95% | viability, T/C [14]: 5% | viability, T/C [15]: 1.88% | viability, T/C [16]: 2.42% | viability, T/C [17]: 2.05% | viability, T/C [18]: 1.12% | viability, T/C [19]: 0.11% | viability, T/C [20]: 1.62% | viability, T/C [21]: 0.17% | viability, T/C [22]: 0.08% | viability, T/C [23]: 1.67% | viability, T/C [24]: 0.46% | viability, T/C [25]: 0.13% | viability, T/C [26]: 1.34% | viability, T/C [27]: 0.63% | viability, T/C [28]: 0.14% | viability, T/C [29]: 0.18% | viability, T/C [30]: 0.3% | viability, T/C [31]: 0.26% | viability, T/C [32]: 0.42% | viability, T/C [33]: 0.26% | viability, T/C [34]: 0.21% | viability, T/C [35]: 0.3% | viability, T/C [36]: 0.88%

COc1cccc2c1C(=O)c1c(O)c3c(c(O)c1C2=O)CC(O)(C(=O)CO)CC3OC1CC(N)C(O)C(C)O1 (stereo unspecified) + CN1CCN(c2cc(C(=O)Nc3cc4cc(-c5cnn(C)c5)ccc4cn3)ccn2)CC1
pIC50 (second compound 0.0316 µM): 7.04 | pIC50 (second compound 0.1 µM): > 7.50 | pIC50 (second compound 0.316 µM): > 7.50 | pIC50 (second compound 1 µM): > 7.50 | pIC50 (second compound 3.16 µM): > 7.50 | pIC50 (second compound 10 µM): > 7.50 | viability, T/C [1]: 100% | viability, T/C [2]: 38.9% | viability, T/C [3]: 33.2% | viability, T/C [4]: 4.76% | viability, T/C [5]: 0.5% | viability, T/C [6]: 4.61% | viability, T/C [7]: 44.3% | viability, T/C [8]: 35.4% | viability, T/C [9]: 21.1% | viability, T/C [10]: 1.67% | viability, T/C [11]: 0.35% | viability, T/C [12]: 7.75% | viability, T/C [13]: 1.3% | viability, T/C [14]: 1.49% | viability, T/C [15]: 0.27% | viability, T/C [16]: 0.21% | viability, T/C [17]: 1.68% | viability, T/C [18]: 8.73% | viability, T/C [19]: 0.12% | viability, T/C [20]: 1.01% | viability, T/C [21]: 0.13% | viability, T/C [22]: 0.11% | viability, T/C [23]: 2.81% | viability, T/C [24]: 6.86% | viability, T/C [25]: 0.14% | viability, T/C [26]: 0.96% | viability, T/C [27]: 1.03% | viability, T/C [28]: 0.15% | viability, T/C [29]: 0.83% | viability, T/C [30]: 7.28% | viability, T/C [31]: 0.46% | viability, T/C [32]: 1.26% | viability, T/C [33]: 0.8% | viability, T/C [34]: 0.22% | viability, T/C [35]: 2.33% | viability, T/C [36]: 7.23%

CCCS(=O)(=O)Nc1ccc(F)c(C(=O)c2c[nH]c3ncc(-c4ccc(Cl)cc4)cc23)c1F + CNC(=O)c1ccc(Nc2nc(OC3CCCC3)c3c(-c4ccc5nc(C)oc5c4)c[nH]c3n2)c(OC)c1
pIC50 (second compound 0.0316 µM): > 7.50 | pIC50 (second compound 0.1 µM): > 7.50 | pIC50 (second compound 0.316 µM): 7.49 | pIC50 (second compound 1 µM): > 7.50 | pIC50 (second compound 3.16 µM): > 7.50 | pIC50 (second compound 10 µM): > 7.50 | viability, T/C [1]: 39.4% | viability, T/C [2]: 44.1% | viability, T/C [3]: 31.6% | viability, T/C [4]: 53.5% | viability, T/C [5]: 47.7% | viability, T/C [6]: 31.5% | viability, T/C [7]: 45.5% | viability, T/C [8]: 37.9% | viability, T/C [9]: 29% | viability, T/C [10]: 28.2% | viability, T/C [11]: 24.6% | viability, T/C [12]: 17.2% | viability, T/C [13]: 50.4% | viability, T/C [14]: 33.6% | viability, T/C [15]: 18.8% | viability, T/C [16]: 22.5% | viability, T/C [17]: 23.9% | viability, T/C [18]: 11.2% | viability, T/C [19]: 37.6% | viability, T/C [20]: 25.5% | viability, T/C [21]: 16.9% | viability, T/C [22]: 13.6% | viability, T/C [23]: 14.4% | viability, T/C [24]: 4.09% | viability, T/C [25]: 30.2% | viability, T/C [26]: 20.7% | viability, T/C [27]: 15.7% | viability, T/C [28]: 13.1% | viability, T/C [29]: 10% | viability, T/C [30]: 4.82% | viability, T/C [31]: 24.2% | viability, T/C [32]: 20.9% | viability, T/C [33]: 14.4% | viability, T/C [34]: 13.6% | viability, T/C [35]: 9.07% | viability, T/C [36]: 4.26%

Reference: PubChem BioAssay AID2060605 (Molecular Pharmacology Branch, DTP, NCI, 2025)
